Drawing on ChEMBL document CHEMBL3352501, “SAR analysis of new anti-TB drugs currently in pre-clinical and clinical development” (Eur J Med Chem, 2014), this text covers MIC and MIC90 for five molecules.

Broadly, the MIC is the lowest concentration that inhibits growth of the organism. As a reminder, the MIC90 is the lowest concentration that inhibits either 90% of growth or 90% of the strains tested, depending on the study.

Converted amounts (≈) assume the structure as drawn. Some results are limits rather than exact numbers.

Assay [1] concerns Mycobacterium tuberculosis. Kind of assay: Antitubercular activity against drug-resistant Mycobacterium tuberculosis clinical isolates assessed as growth inhibition. It counts as functional.
Assay [2] concerns Mycobacterium tuberculosis. The experiment in a line: Antitubercular activity against multidrug-resistant Mycobacterium tuberculosis clinical isolates assessed as growth inhibition. The format is functional.

On to `COc1ncccc1Nc1cc2nc3ccccc3n(-c3ccc(OC(F)(F)F)cc3)c-2c/c1=N\C1CCC(OC)CC1` (stereo not given), for which, in assay [1], the MIC is 0.027 µg/mL (≈ 0.0458 µM).

As for `COc1nc2ccc(Br)cc2cc1[C@@H](c1ccccc1)[C@@](O)(CCN(C)C)c1cccc2ccccc12` [BEDAQUILINE], the minimal inhibitory concentration (MIC) in assay [1] was found to be 0.002 µg/mL (≈ 0.0036 µM).

On to `CC(C)/N=c1\cc2n(-c3ccc(Cl)cc3)c3ccccc3nc-2cc1Nc1ccc(Cl)cc1` [CLOFAZIMINE], for which, in assay [1], the MIC came out at 0.108 µg/mL (≈ 0.228 µM).

For `CC(C)=CCC/C(C)=C/CNCCNC1C2CC3CC(C2)CC1C3` (stereo not given) [SQ109], the MIC in assay [1] is 0.2 µg/mL (≈ 0.605 µM).

In the case of `CCc1nc2ccc(Cl)cn2c1C(=O)NCc1ccc(N2CCC(c3ccc(OC(F)(F)F)cc3)CC2)cc1` [TELACEBEC], the MIC90 in assay [2] is less than 0.43 nM.
